From patent publication US20100233199A1, “MODULATORS OF HYPERSENSITIVITY REACTIONS” (priority 2007, published 2010)

Experiments:
skin mast cells = type: in vivo, mice; details: for systemic effects of local (ear) treatment: mouse, in vivo
Protocol: Left ears were treated with DMSO and right ears with 0.2% MDD1 or 0.1% dexamethasone in DMSO twice daily for four days. Mice were then sensitised with anti DNP-20 ul IgE antibody administered to the ears by intradermal injection using an insulin syringe. Local mast cell activation was measured by dye recovery in response to FcεRI crosslink 24 hours post-injection: 100 μg DNP-albumin/1% Evans blue in PBS was injected intravenously and ear biopsies taken after 30 minutes were incubated at 80° C. in 1 ml formamide for 2 hours. The absorbance supernatant was measured at 620 nm.

[1] = Peptide solubility observation; type: physicochemical
RBL-2H3 cells [2] = assay: MDD1 uptake by RBL-2H3 cells (FACS, streptavidin-APC); type: cell-based, rat; details: biotinylated MDD1 0.001, 0.01 and 0.1 mM overnight; intracellular FACS staining with streptavidin APC; FIG. 6
Protocol: RBL-2H3 cells were grown in F15 medium supplemented with 10% of fetal calf serum (FCS) and antibiotics. Cells were carefully detached from the culture flask with a cell scraper and plated at a concentration of 5×10^5 cells/well in a 96 well microtiter plate. Cells were incubated with various concentrations of biotinylated MDD1 (0.1, 0.01 and 0.001 mM) overnight. Biotinylated MDD1 uptake by live cells was detected using streptavidin-APC in single-cell suspensions previously treated with a combined cytofix/cytopenn fixation and penneabilization solution kit following manufacture's instructions (Becton Dickinson, BD). Cells were then analysed using a BD FACscan flow cytometer.

RBL-2H3 cells [3] = assay: RBL-2H3 degranulation assay (β-hexosaminidase release); type: cell-based, rat; details: for degranulation upon IgE receptor crosslinking: peptide 0.01 mM pre-treatment overnight, IgE coating + DNP/albumin crosslinking, FIG. 7
Protocol: (§1) Mast cell degranulation was measured using the β-hexosaminidase release method. RBL-2H3 cells were grown in F15 medium supplemented with 10% of fetal calf serum (FCS) and antibiotics. Cells were carefully detached from the culture flask with a cell scraper and plated at a concentration of 5×10^5 cells/well in a 96 well microtiter plate and incubated in the presence of MDD1 or SCR peptide overnight. RBL-2H3 cells were then incubated with 500 ng/ml anti-DNP IgE mb (SIGMA) for 2 hours at 37° C. After washing, cells were stimulated with 100 ng/ml DNP/albumin for 30 minutes. For non IgE specific stimulation 1 nM Ionomycin only was added to the cultures for 30 minutes. Supernatants were then collected and cell lysates were prepared using 0.1% Triton X-100. Lysate and supernatant samples (10 μl) were transferred into 96-well plates and 50 μl mM 1 mM p-nitrophenyl-N-acetyl-β-D-glucopyranoside in 50 mM citrate buffer was added to each well and incubated for 1 hour at 37° C. in the dark. The reaction was stopped by adding 100 μl 0.1M NaHCO3/0.1M Na2CO3 into each well and the absorbance measured at 405 nm. Percentage degranulation was calculated by the following formula: OD supernatant/(OD supernatant+OD lysate)×100.
as §1, with “MPX741 peptide” for “MDD1”, “MPX742” for “SCR”, “(100)” for “(10 μl)”, “μl” for “μl mM”, “formula:” for “formula: OD supernatant/(OD supernatant+OD lysate)×100.”
OD supernatant/(OD supernatant+OD lysate)×100.

OVA-sensitised mice [4] = assay: OVA-induced asthma model, lung resistance after β-methacholine; type: in vivo, C57BL/6 mice; details: 6 hours prior to each OVA challenge, compared to control peptide
Protocol: (§2) C57BL/6 mice were sensitised with 10 ug ovalbumin antigen (OVA) in saline intraperitoneally seven times given on alternate days. 40 days after first sensitisation dose, mice were challenged with intranasal OVA (20 ul in each nostril of a solution of 5 mg/ml of OVA in saline). Mice received two additional challenges of intranasal OVA at days 3 and 6 after the first challenge with OVA. Control mice were sensitised with OVA, but challenged intranasally with saline. Groups of mice receiving parenteral MDD1 treatment were intravenously injected with 8 mg/Kg of MDD1 three times, 6 hours prior to each OVA challenge. Nebulised MDD1 or MDDscram (SCR) peptide was given 6 hours prior to each OVA challenge by nebulising 5 mice per cage with 8 ml of 1 mg/ml MDD1 or control peptide.
Functional lung studies and organ collection was performed one day after the final OVA challenge. Lung resistance was measured in anesthetized mice after increasing doses of β-methacholine. […] Lung resistance was measured by plethysmography, using an apparatus and software supplied by Buxco. Lung resistance values are expressed as an average of each group of mice for each methacholine dose. For each mouse, individual values were calculated by averaging collected data (every 5 seconds during 5 minutes) for each methacholine dose.

OVA-sensitised mice [5] = assay: OVA-induced asthma model, inflammatory response (eosinophils, BAL cells, cytokine expression, serum IgE); type: in vivo, C57BL/6 mice
Protocol: as §2
Blood smears were prepared and the percentage of eosinophils was calculated by morphological criteria after May-Grünwald Giemsa-staining. Bronchoalveolar lavage (BAL) was recovered by lavaging airways twice with 1 ml HANKS solution via the tracheal cannula while gently massaging the thorax. Lung lower left lobe was collected and homogenised. Cells were filtered through a cell strainer and cell suspensions prepared in staining medium (PBS with 1% FCS). BAL and lung samples were incubated with anti-CD11b, anti-CCR3, anti-CD4 and antiB220 mab markers for flow cytometric analysis using a FACScan equipped with CellQuest software.
Lung upper right lobe was collected and homogenised on ice. Total RNA was prepared using Trizol (GIBCO, Invitrogen). Purity of the RNA was determined by A260/A280. 5 μg RNA for each sample was reverse transcribed into cDNA using Omniscript RT kit (Qiagen). Cytokine specific predesigned TaqMan gene expression assay (Applied Biosystems) were used to measure cytokine relative gene expression following the manufacturer's instructions (Applied Biosystems). Each experimental sample was assayed in three replicates. β-actin specific primers were used as an internal standard. Negative controls with blank cDNA template were run with every assay to assess specificity. The cycling conditions were as follows: one cycle at 95° C. for 10 minutes, followed by 40 cycles of PCR amplification, each consisting of 95° C. for 15 seconds and 60° C. for 45 seconds. Sequence Detection Software (SDS v 1.2.2, Applied Biosystems) was used for analysis of the results. A threshold cycle (Ct) was determined for each sample. PCR assays showing non-specific products at the end point were excluded from further data analysis. Relative quantification using comparative Ct method was used for analysing results. The results were expressed as relative fold change over the values for non-allergic mice.
OVA-specific IgE detection: 96-well maxisorp plates were coated overnight at 4° C. with anti-mouse IgE. 2% skim milk was used for unspecific binding blockade. Prediluted serum samples were incubated overnight, plates were loaded with OVA-biotin for 1.5 hours and a colometric reaction was developed using ABTS following manufacture's instructions. For OVA-specific IgG, 96-well maxisorp microtiter plates were pretreated with 0.2% glutaraldehyde and were coated with 10 μg/ml of OVA in 10 mM carbonate buffer (pH 9.6) for 3 hours at 37° C. Wells were blocked with 2% BSA in 10 mM carbonate buffer (pH 9.6) overnight at 4° C. in a humidified chamber. Serum samples were incubated at 37° C. for 1 hour. Peroxidase-conjugated […] followed by ABTS was used to develop the colorimetric reaction. Optical density was read in a microplate reader using a 405 nm filter. Levels of IgE and IgG were expressed as OD units.

C[C@@H]1C[C@H]2[C@@H]3CCC4=CC(=O)C=C[C@]4(C)[C@@]3(F)[C@@H](O)C[C@]2(C)[C@@]1(O)C(=O)CO [dexamethasone, reference compound]
systemic effects of local (ear) treatment (skin mast cells): systemic immunosuppresion

Ac-PQDQGWNAEITLQMVQY-NH2 [MPX743, PQDQGWNAEITLQMVQY]
solubility [1]: poorly soluble

Ac-RALYDNVPECAEELAFRKGD-NH2 [MDD1]
MDD1 peptide uptake by live cells (RBL-2H3 cells [2]): All cells were positive for MDD1 peptide and the levels were observed to increase with peptide concentration
mast cell activation after non-specific stimulation (RBL-2H3 cells [3]; non IgE specific stimulation (ionomycin), data not shown): inhibit mast cell activation
degranulation upon IgE receptor crosslinking (RBL-2H3 cells [3]): inhibit degranulation
mast cell activation following IgE receptor crosslink, by dye extravasation (skin mast cells; 0.2% MDD1 peptide/DMSO topically to ear, twice daily for four days, compared to contralateral ears treated with DMSO only, FIG. 10): reduced levels of activation
systemic effects of local (ear) treatment (skin mast cells): minimal systemic effects
Lung resistance (RL) following increasing doses of β-methacholine (OVA-sensitised mice [4]; intravenously 8 mg/kg, FIG. 8A): reduced
Lung resistance (RL) following increasing doses of β-methacholine (OVA-sensitised mice [4]; nebulised intranasal route 1 mg/ml, FIG. 8B): reduced
overall inflammatory response in the asthmatic reaction (OVA-sensitised mice [5]; OVA-sensitized mice, FIG. 9): reduced
eosinophilia in blood (OVA-sensitised mice [5]; allergic mice compared to control treated mice, FIG. 9A): decreased
cellularity in broncho-alveolar lavages (OVA-sensitised mice [5]; allergic mice compared to control treated mice, FIG. 9B): decreased
cytokine production in inflammatory foci (TNF expression) (OVA-sensitised mice [5]; allergic mice compared to control treated mice, FIG. 9C): decreased
levels of antigen-specific IgE in serum (OVA-sensitised mice [5]; allergic mice compared to control treated mice, FIG. 9D): decreased
comparison with dexamethasone treatment in the inflammatory parameters tested (OVA-sensitised mice [5]; dexamethasone 2 mg/kg i.p., some of the parameters, FIG. 9): outperformed dexamethasone treatment

EALPGEDCAFRKDANRLVEY (listed as Homo sapiens) [MDD1scram, control peptide, reference compound]
degranulation upon IgE receptor crosslinking (RBL-2H3 cells [3]): only a minor inhibitory effect

LEPPVKLKELHFSNMKTVD (listed as Homo sapiens) [MPX742]
degranulation following IgE receptor crosslink (RBL-2H3 cells [3]; MPX741, MPX742 0.01 mM pre-treatment, IgE coating + crosslinking, FIG. 11): significantly reduced degranulation
